Results from the supplement of paper PMC10307832.

Key:
Experiment in all cases: relative viability (nuclei count vs DMSO), 5 days (fraction); higher = more cells survive
RU-SKI 43 + OSI-027 = compound: CC[C@@H](C)CNCC(=O)N1CCC2=C([C@@H]1COC3=CC=CC(=C3)C)C=CS2 [RU-SKI 43] + COc1cccc2cc(-c3nc([C@H]4CC[C@H](C(=O)O)CC4)n4ncnc(N)c34)[nH]c12 [OSI-027] (partner 0.5 µM)
Method in brief: (§1)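 Relative viability equals treated-well nuclei counts divided by vehicle-well nuclei counts. Counts came from 4× images of lung cancer cell lines grown in 1536-well plates for 5 days after pin-tool dosing on the day after seeding. Dosing used one drug alone or a fixed anchor-drug dose plus five library-drug doses (not always all listed) in √10 steps, and values are medians of duplicate plates.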

MK-8033 + OSI-027 = compound: Cn1cc(-c2cnc3ccc4ccc(CS(=O)(=O)NCc5ccccn5)cc4c(=O)c3c2)cn1 [MK-8033] + COc1cccc2cc(-c3nc([C@H]4CC[C@H](C(=O)O)CC4)n4ncnc(N)c34)[nH]c12 [OSI-027] (partner 0.5 µM)
Method in brief: as §1

MK-8033 + Phenformin = compound: Cn1cc(-c2cnc3ccc4ccc(CS(=O)(=O)NCc5ccccn5)cc4c(=O)c3c2)cn1 [MK-8033] + N=C(N)NC(=N)NCCc1ccccc1 [Phenformin] (partner 250 µM)
Method in brief: as §1

Irinotecan + AZD7762 = compound: CCc1c2c(nc3ccc(OC(=O)N4CCC(N5CCCCC5)CC4)cc13)-c1cc3c(c(=O)n1C2)COC(=O)[C@]3(O)CC [Irinotecan] + NC(=O)Nc1cc(-c2cccc(F)c2)sc1C(=O)N[C@H]1CCCNC1 [AZD7762] (partner 0.2 µM)
Method in brief: as §1

Row | Cell Line | relative viability (RU-SKI 43 + OSI-027; first compound 0.1 µM) | relative viability (RU-SKI 43 + OSI-027; first compound 0.3162 µM) | relative viability (RU-SKI 43 + OSI-027; first compound 1 µM) | relative viability (RU-SKI 43 + OSI-027; first compound 3.162 µM) | relative viability (RU-SKI 43 + OSI-027; first compound 10 µM) | relative viability (MK-8033 + OSI-027; first compound 0.02 µM) | relative viability (MK-8033 + OSI-027; first compound 0.06325 µM) | relative viability (MK-8033 + OSI-027; first compound 0.2 µM) | relative viability (MK-8033 + OSI-027; first compound 0.6325 µM) | relative viability (MK-8033 + OSI-027; first compound 2 µM) | relative viability (MK-8033 + Phenformin; first compound 0.02 µM) | relative viability (MK-8033 + Phenformin; first compound 0.06325 µM) | relative viability (MK-8033 + Phenformin; first compound 0.2 µM) | relative viability (MK-8033 + Phenformin; first compound 0.6325 µM) | relative viability (MK-8033 + Phenformin; first compound 2 µM) | relative viability (Irinotecan + AZD7762; first compound 0.6325 µM) | relative viability (Irinotecan + AZD7762; first compound 2 µM) | relative viability (Irinotecan + AZD7762; first compound 6.325 µM) | relative viability (Irinotecan + AZD7762; first compound 20 µM)
1 | CAL-12T | 0.612 | 0.447 | 0.721 | 0.911 | 0.543 | 0.551 | 0.655 | 0.519 | 0.695 | 0.536 | 0.56 | 0.518 | 0.444 | 0.697 | 0.545 | 0.676 | 0.564 | 0.453 | 0.29
2 | ChaGo-K-1 | 0.658 | 0.632 | 0.646 | 0.579 | 0.744 | 0.51 | 0.536 | 0.528 | 0.552 | 0.511 | 0.477 | 0.479 | 0.435 | 0.512 | 0.5 | 0.584 | 0.542 | 0.27 | 0.204
3 | NCI-H2347 | 0.414 | 0.414 | 0.697 | 0.389 | 0.328 | 0.395 | 0.399 | 0.406 | 0.454 | 0.422 | 0.442 | 0.37 | 0.57 | 0.59 | 0.428 | 0.609 | 0.654 | 0.48 | 0.372
4 | LU99A | 0.298 | 0.282 | 0.314 | 0.309 | 0.317 | 0.315 | 0.251 | 0.299 | 0.298 | 0.307 | 0.859 | 0.747 | 0.773 | 0.845 | 0.751 | 0.152 | 0.13 | 0.106 | 0.132
5 | PC-3 [JPC-3] | 0.682 | 0.862 | 0.797 | 0.804 | 0.366 | 0.78 | 0.647 | 0.646 | 0.776 | 0.692 | 0.482 | 0.426 | 0.469 | 0.475 | 0.503 | 0.465 | 0.864 | 0.463 | 0.398
6 | HCC-366 | 0.962 | 0.94 | 1.02 | 0.931 | 0.452 | 1.1 | 0.85 | 0.838 | 0.945 | 0.791 | 0.725 | 0.644 | 0.601 | 0.618 | 0.607 | 0.182 | 0.138 | 0.0668 | 0.0622
7 | HARA | 0.558 | 0.492 | 0.578 | 0.594 | 0.295 | 0.569 | 0.265 | 0.487 | 0.429 | 0.418 | 0.477 | 0.406 | 0.396 | 0.374 | 0.422 | 0.2 | 0.278 | 0.154 | 0.255
8 | NCI-H1792 | 0.682 | 1.05 | 0.969 | 0.939 | 0.707 | 0.655 | 0.611 | 0.683 | 0.628 | 0.512 | 0.346 | 0.267 |  | 0.282 | 0.225 | 0.241 | 0.502 | 0.169 | 0.274
9 | HCC-827 | 0.73 | 0.94 | 0.889 | 0.783 | 0.736 | 0.774 |  | 0.735 | 0.801 | 0.758 | 0.407 |  | 0.397 | 0.424 | 0.393 | 0.201 | 0.193 | 0.203 | 0.182
10 | LXF-289 | 0.776 | 0.874 | 0.951 | 0.827 | 0.733 | 0.809 | 0.668 | 0.667 | 0.83 | 0.806 | 0.559 | 0.504 | 0.499 | 0.547 | 0.538 | 1.01 | 1.05 | 0.425 | 0.192
11 | NCI-H460 | 0.643 | 1.24 | 1.14 | 0.913 | 0.521 | 0.643 | 0.627 | 0.547 | 0.686 | 0.472 | 0.543 | 0.486 | 0.506 | 0.542 | 0.491 |  | 0.202 | 0.0963 | 0.0901
12 | PC-14 | 0.844 | 1.07 | 0.93 | 0.965 | 0.75 | 0.835 | 0.742 | 0.828 | 0.773 | 0.73 | 0.605 | 0.472 | 0.508 | 0.524 | 0.564 | 0.306 | 0.431 | 0.232 | 0.199
13 | NCI-H1734 | 0.498 | 0.638 | 0.603 | 0.671 | 0.534 | 0.59 | 0.508 | 0.612 | 0.632 | 0.547 | 0.435 | 0.338 | 0.366 | 0.361 | 0.37 |  | 0.399 | 0.185 | 0.139
14 | NCI-H727 | 0.553 | 0.642 | 0.559 | 0.565 | 0.455 | 0.667 |  | 0.652 | 0.583 | 0.551 | 0.7 |  | 0.435 | 0.627 | 0.465 | 0.462 | 0.575 | 0.406 | 0.342
15 | HOP-62 | 0.912 | 1.02 | 1.1 | 0.915 | 0.928 | 0.83 | 0.821 | 0.756 | 0.84 | 0.896 | 0.674 | 0.646 | 0.631 | 0.703 | 0.639 | 0.211 | 0.316 | 0.236 | 0.161
16 | NCI-H2405 | 0.618 | 0.56 | 0.615 | 0.684 | 0.569 | 0.595 | 0.538 | 0.594 | 0.604 | 0.604 | 0.406 | 0.348 | 0.403 | 0.377 | 0.367 |  | 0.765 | 0.298 | 0.197
17 | NCI-H2342 | 0.541 | 0.594 | 0.622 | 0.641 | 0.62 | 0.588 | 0.64 | 0.719 | 0.665 | 0.632 | 0.55 | 0.529 | 0.585 | 0.594 | 0.591 | 0.516 | 0.514 | 0.489 | 0.462
